Data as given in EP1816136A1, “GPR7-SELECTIVE LIGAND AND USE THEREOF” (BANYU PHARMACEUTICAL CO., LTD., priority 2004, dated 2006).
Non-standard residues stand in square brackets, D forms with d. Residues, ends and D or L forms follow the SMILES beside them. 3Abz = Nc1cccc(C(=O)O)c1; 4Abz = Nc1ccc(C(=O)O)cc1; 2Abz = Nc1ccccc1C(=O)O; Ava = NCCCCC(=O)O

Experiments:
[1] = biological target: T1, GPR7 (Homo sapiens, UniProt P48145); experiment: Binding inhibition test with [125I]-[Phe2]-hNPW(1-23), GPR7 membrane preparation
T1 construct: expressed in transfected cells; host or cells: HEK293/CRE-BLA cells (AURORA), expression vector pIRES-hygro (Clontech)
T1 sequence (P48145 1-328): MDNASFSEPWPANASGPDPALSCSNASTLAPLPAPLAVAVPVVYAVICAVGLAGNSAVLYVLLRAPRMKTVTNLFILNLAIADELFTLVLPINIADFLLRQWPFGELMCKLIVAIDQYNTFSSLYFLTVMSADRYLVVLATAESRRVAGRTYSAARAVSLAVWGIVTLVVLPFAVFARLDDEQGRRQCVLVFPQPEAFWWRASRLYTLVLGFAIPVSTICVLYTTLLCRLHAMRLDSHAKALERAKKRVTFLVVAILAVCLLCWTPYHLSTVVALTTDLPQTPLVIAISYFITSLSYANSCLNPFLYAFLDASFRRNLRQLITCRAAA
Method: (§1) One nmol of [Phe2]-hNPW(1-23) (prepared in Synthesis Example 19) was dissolved in 5 µL of anhydrous DMSO, and the solution was mixed with 0.1M nickel chloride. Then, the mixture was mixed with 10 µL of a 0.00 1 % aqueous solution of hydrogen peroxide, 10 µL of an enzyme solution (lactoperoxidase (Sigma) adjusted to 10 µg/mL with a 0.1M HEPES buffer solution), and 37 Mbq/10 µL of Iodine-125 (Amersham), whereafter the resulting mixture was reacted for 60 minutes at room temperature. The reaction was terminated with the addition of 10 µL of 1% sodium azide, and then a radiolabeled peptide fraction was collected by a PD-10 gel filtration column (Amersham) to obtain [^125I]-[Phe2]-hNPW(1-23).
(§2) A cDNA sequence coding for human GPR7 or GPR8 [see Genomics, vol. 28, p. 84 (1995)] was amplified by the PCR method, and cloned using the expression vector pIRES-hygro (Clontech). The resulting expression vector was transfected into HEK293/CRE-BLA cells (AURORA) using the cationic lipid method [see Proceedings of the National Academy of Sciences of the United States of America, vol. 84, p. 7413 (1987)] to obtain GPR7 or GPR8 expression cells.
(§3) A membrane preparation prepared from the cells expressing GPR7 or GPR8 was incubated for 1 hour at room temperature in an assay buffer solution (25 mM Tris buffer solution, 150 mM NaCl, pH 7.4) together with a test compound and 28,000 cpm of [^125I]-[Phe2]-hNPW(1-23). Then, the system was filtered through the glass filter GF/C. After washing with 25 mM Tris buffer solution (pH 7.4), radioactivity on the glass filter was measured. Nonspecific binding was measured in the presence of 1 µM hNPW (prepared in Synthesis Example 1), and the 50% inhibition concentration (IC50 value) of the test compound against [Phe2]-hNPW(1-23) specific binding was calculated [see Molecular Pharmacology, vol. 55, 1101 (1999)].

[2] = biological target: T1, GPR7; experiment: Measurement of activation capacity on GPR7 (CRE-BLA beta-lactamase reporter assay); type: cell-based; conditions: Table 1; HEK293/CRE-BLA cells expressing GPR7; forskolin 1 µM; 3 hours at 37°C
Text: as §2
(§4) In accordance with the method of Zlakarmik (see Science, 1998, vol. 279, p. 84), the activity of various synthetic peptides on GPR7 or GPR8 was measured. HEK293/CRE-BLA cells which expressed GPR7 or GPR8 (prepared in (2) of Test Example 1) were washed twice with PBS(-) buffer solution (GIBCO-BRL), and then Cell-dissociation buffer (GIBCO-BRL) was added. The system was kept at 37°C for 3 minutes in a CO2 incubator, and a culture flask was tapped to liberate the cells from the flask. After the cells were harvested by centrifugation, the cells were suspended in an Opti-MEM culture medium (GIBCO-BRL) containing 0.1 % BSA (Sigma) to count the cells and prepare a cell suspension containing 8×10^5 cells/mL. To 2 µL of a DMSO solution containing each test compound with a concentration of 50 times an end concentration, 50 µL of the 0.1% BSA-containing Opti-MEM medium incorporating forskolin (Sigma) so as to have an end concentration of 1 µM was added to form a reaction solution. To this reaction solution, 50 µL of the above cell suspension was added to initiate the reaction, and the system was incubated for 3 hours at 37°C in a CO2 incubator.
(§5) Then, using a BLA assay kit (AURORA), a coloring matter-introduced buffer solution incorporating 12 µL of Solution A [1 mM CCF2-AM/anhydrous DMSO solution], 120 µL of Solution B [100 mg/mL Pluronic 127, 0.1% acetic acid/DMSO solution], and 2 mL of Solution C [24% (w/w) PEG-400, 18% TR40/H2O] was prepared. This coloring matter-introduced buffer solution (20 µL) was added to the above-mentioned cell reaction mixture to introduce a β-lactamase substrate (CCF2-AM) into the cells. After the system was allowed to stand for 1 hour at room temperature, the fluorescence intensities of the sample at an excitation wavelength of 409 nm, at a fluorescence wavelength of 460 nm (a β-lactamase hydrolyzate of CCF), and at 530 nm (CCF) were measured. With β-lactamase activity (fluorescence intensity at 460 nm/fluorescence intensity at 530 nm) as an indicator, the activity of each of various peptides on GPR7 or GPR8 was measured, and the 50% effective concentration (EC50) of the test compound was calculated.

[3] = biological target: T2, GPR8 (Homo sapiens, UniProt P48146); experiment: Measurement of activation capacity on GPR8 (CRE-BLA beta-lactamase reporter assay); type: cell-based; conditions: Table 1; HEK293/CRE-BLA cells expressing GPR8; forskolin 1 µM; 3 hours at 37°C; read-out: GPR8 (nM) EC 50
T2 construct: expressed in transfected cells; host or cells: HEK293/CRE-BLA cells (AURORA), expression vector pIRES-hygro (Clontech)
T2 sequence (P48146 whole entry): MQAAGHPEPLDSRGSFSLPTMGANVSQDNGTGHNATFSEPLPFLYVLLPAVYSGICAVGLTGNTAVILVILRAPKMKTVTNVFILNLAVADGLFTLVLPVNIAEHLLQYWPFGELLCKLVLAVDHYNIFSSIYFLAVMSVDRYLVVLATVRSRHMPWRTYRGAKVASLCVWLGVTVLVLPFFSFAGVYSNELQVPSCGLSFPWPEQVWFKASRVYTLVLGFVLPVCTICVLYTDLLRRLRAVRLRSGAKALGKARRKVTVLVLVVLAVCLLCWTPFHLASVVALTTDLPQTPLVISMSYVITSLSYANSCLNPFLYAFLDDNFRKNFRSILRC
Text: as §2, §4, §5

[4] = biological target: T2, GPR8; experiment: Binding inhibition test with [125I]-[Phe2]-hNPW(1-23), GPR8 membrane preparation
Method: as §1, §2, §3

[5] = Table 1, membrane preparation of HEK293/CRE-BLA cells expressing GPR7, 1 hour at room temperature
[6] = Table 1, membrane preparation of HEK293/CRE-BLA cells expressing GPR8, 1 hour at room temperature
[7] = Table 2, membrane preparation of cells expressing GPR7
[8] = Table 2, membrane preparation of cells expressing GPR8

CC(C)C[C@H](NC(=O)CNC(=O)[C@H](CO)NC(=O)[C@H](CC(C)C)NC(=O)[C@H](CC(C)C)NC(=O)CNC(=O)[C@H](C)NC(=O)[C@H](C)NC(=O)[C@H](CCCNC(=N)N)NC(=O)CNC(=O)[C@@H](NC(=O)[C@H](CO)NC(=O)[C@H](Cc1ccc(O)cc1)NC(=O)[C@H](CO)NC(=O)[C@H](CO)NC(=O)[C@H](Cc1cnc[nH]1)NC(=O)CNC(=O)[C@H](C)NC(=O)[C@H](C)NC(=O)[C@@H]1CCCN1C(=O)[C@H](CCCCN)NC(=O)[C@H](Cc1ccc(O)cc1)NC(=O)[C@@H](N)Cc1c[nH]c2ccccc12)C(C)C)C(N)=O [compound 4]
IC50 [1, 5]: 0.23 nM | EC50 [2]: 0.24 nM | EC50 [3]: 0.86 nM | IC50 [4, 6]: 24 nM

CC(C)C[C@H](NC(=O)CNC(=O)[C@H](CO)NC(=O)[C@H](CC(C)C)NC(=O)[C@H](CC(C)C)NC(=O)CNC(=O)[C@H](C)NC(=O)[C@H](C)NC(=O)[C@H](CCCNC(=N)N)NC(=O)CNC(=O)c1ccc(NC(=O)CCCCNC(=O)CCCCNC(=O)[C@H](CCCCN)NC(=O)[C@H](Cc2ccc(O)cc2)NC(=O)[C@@H](N)Cc2c[nH]c3ccccc23)cc1)C(N)=O [compound 12] (H-WYK[Ava][Ava][4Abz]GRAAGLLSGL-NH2)
IC50 [1, 7]: 0.35 nM | IC50 [4, 8]: 5.1 nM

CC(C)C[C@H](NC(=O)CNC(=O)[C@H](CO)NC(=O)[C@H](CC(C)C)NC(=O)[C@H](CC(C)C)NC(=O)CNC(=O)[C@H](C)NC(=O)[C@H](C)NC(=O)[C@H](CCCNC(=N)N)NC(=O)CNC(=O)c1ccccc1NC(=O)CCCCNC(=O)CCCCNC(=O)[C@H](CCCCN)NC(=O)[C@H](Cc1ccc(O)cc1)NC(=O)[C@@H](N)Cc1c[nH]c2ccccc12)C(N)=O [compound 10] (H-WYK[Ava][Ava][2Abz]GRAAGLLSGL-NH2)
IC50 [1, 7]: 4.7 nM | IC50 [4, 8]: 8000 nM

CC(C)C[C@H](NC(=O)CNC(=O)[C@H](CO)NC(=O)[C@H](CC(C)C)NC(=O)[C@H](CC(C)C)NC(=O)CNC(=O)[C@H](C)NC(=O)[C@H](C)NC(=O)[C@H](CCCNC(=N)N)NC(=O)CNC(=O)c1cccc(NC(=O)CCCCNC(=O)CCCCNC(=O)[C@H](CCCCN)NC(=O)[C@H](Cc2ccc(O)cc2)NC(=O)[C@@H](N)Cc2c[nH]c3ccccc23)c1)C(N)=O [compound 11] (H-WYK[Ava][Ava][3Abz]GRAAGLLSGL-NH2)
IC50 [1, 7]: 0.37 nM | IC50 [4, 8]: 13 nM

CC(C)C[C@H](NC(=O)CNC(=O)[C@H](CO)NC(=O)[C@H](CC(C)C)NC(=O)[C@H](CC(C)C)NC(=O)CNC(=O)[C@H](C)NC(=O)[C@H](C)NC(=O)[C@H](CCCNC(=N)N)NC(=O)CNC(=O)CCCCNC(=O)CCCCNC(=O)c1ccccc1NC(=O)[C@H](CCCCN)NC(=O)[C@H](Cc1ccc(O)cc1)NC(=O)[C@@H](N)Cc1c[nH]c2ccccc12)C(N)=O [compound 16] (H-WYK[2Abz][Ava][Ava]GRAAGLLSGL-NH2)
IC50 [1, 7]: 1.3 nM | IC50 [4, 8]: 160 nM

CC(C)C[C@H](NC(=O)CNC(=O)[C@H](CO)NC(=O)[C@H](CC(C)C)NC(=O)[C@H](CC(C)C)NC(=O)CNC(=O)[C@H](C)NC(=O)[C@H](C)NC(=O)[C@H](CCCNC(=N)N)NC(=O)CNC(=O)CCCCNC(=O)c1ccccc1NC(=O)CCCCNC(=O)[C@H](CCCCN)NC(=O)[C@H](Cc1ccc(O)cc1)NC(=O)[C@@H](N)Cc1c[nH]c2ccccc12)C(N)=O [compound 13] (H-WYK[Ava][2Abz][Ava]GRAAGLLSGL-NH2)
IC50 [1, 7]: 0.56 nM | IC50 [4, 8]: 39 nM

CC(C)C[C@H](NC(=O)CNC(=O)[C@H](CO)NC(=O)[C@H](CC(C)C)NC(=O)[C@H](CC(C)C)NC(=O)CNC(=O)[C@H](C)NC(=O)[C@H](C)NC(=O)[C@H](CCCNC(=N)N)NC(=O)CNC(=O)CCCCNC(=O)CCCCNC(=O)c1ccc(NC(=O)[C@H](CCCCN)NC(=O)[C@H](Cc2ccc(O)cc2)NC(=O)[C@@H](N)Cc2c[nH]c3ccccc23)cc1)C(N)=O [compound 18] (H-WYK[4Abz][Ava][Ava]GRAAGLLSGL-NH2)
IC50 [1, 7]: 5.6 nM | IC50 [4, 8]: 190 nM

CC(C)C[C@H](NC(=O)CNC(=O)[C@H](CO)NC(=O)[C@H](CC(C)C)NC(=O)[C@H](CC(C)C)NC(=O)CNC(=O)[C@H](C)NC(=O)[C@H](C)NC(=O)[C@H](CCCNC(=N)N)NC(=O)CNC(=O)CCCCNC(=O)c1ccc(NC(=O)CCCCNC(=O)[C@H](CCCCN)NC(=O)[C@H](Cc2ccc(O)cc2)NC(=O)[C@@H](N)Cc2c[nH]c3ccccc23)cc1)C(N)=O [compound 15] (H-WYK[Ava][4Abz][Ava]GRAAGLLSGL-NH2)
IC50 [1, 7]: 0.4 nM | IC50 [4, 8]: 34 nM

CC(C)C[C@H](NC(=O)CNC(=O)[C@H](CO)NC(=O)[C@H](CC(C)C)NC(=O)[C@H](CC(C)C)NC(=O)CNC(=O)[C@H](C)NC(=O)[C@H](C)NC(=O)[C@H](CCCNC(=N)N)NC(=O)CNC(=O)CCCCNC(=O)CCCCNC(=O)c1cccc(NC(=O)[C@H](CCCCN)NC(=O)[C@H](Cc2ccc(O)cc2)NC(=O)[C@@H](N)Cc2c[nH]c3ccccc23)c1)C(N)=O [compound 17] (H-WYK[3Abz][Ava][Ava]GRAAGLLSGL-NH2)
IC50 [1, 7]: 0.34 nM | IC50 [4, 8]: 33 nM

CC(C)C[C@H](NC(=O)CNC(=O)[C@H](CO)NC(=O)[C@H](CC(C)C)NC(=O)[C@H](CC(C)C)NC(=O)CNC(=O)[C@H](C)NC(=O)[C@H](C)NC(=O)[C@H](CCCNC(=N)N)NC(=O)CNC(=O)CCCCNC(=O)c1cccc(NC(=O)CCCCNC(=O)[C@H](CCCCN)NC(=O)[C@H](Cc2ccc(O)cc2)NC(=O)[C@@H](N)Cc2c[nH]c3ccccc23)c1)C(N)=O [compound 14] (H-WYK[Ava][3Abz][Ava]GRAAGLLSGL-NH2)
IC50 [1, 7]: 0.19 nM | IC50 [4, 8]: 16 nM

CC(C)C[C@H](NC(=O)CNC(=O)[C@H](CO)NC(=O)[C@H](CC(C)C)NC(=O)[C@H](CC(C)C)NC(=O)CNC(=O)[C@H](C)NC(=O)[C@H](C)NC(=O)[C@H](CCCNC(=N)N)NC(=O)CNC(=O)CCCCNC(=O)CCCCNC(=O)CCCCNC(=O)CCCCNC(=O)CCCCNC(=O)[C@H](CCCCN)NC(=O)[C@H](Cc1ccc(O)cc1)NC(=O)[C@@H](N)Cc1c[nH]c2ccccc12)C(N)=O [compound 9] (H-WYK[Ava][Ava][Ava][Ava][Ava]GRAAGLLSGL-NH2)
IC50 [1, 5]: > 100 nM | IC50 [4, 6]: 2600 nM
